US6420563B1, “Small molecule modulators of G protein-coupled receptor six” (Arena Pharmaceuticals, Inc., priority 1998, dated 2002)
Read-outs that look alike come from different tables or passages of the source.

Legend:
GPR6:Gsα-Fusion Protein = target: T1, GPR6:Gsα-Fusion Protein (Homo sapiens, UniProt P46095); test: [35S]GTPγS membrane binding assay (Example 4A); type: biochemical
T1 construct: expressed in transfected cells
Method: The assay plates were then centrifuged at 400 rpm for 15 minutes at room temperature and then subsequently aspirated and counted in a scintillation counter.
Membranes expressing the GPCR6:Gsα-Fusion Protein (see Example 2) and for use in the direct identification of candidate compounds as inverse agonists, agonists or partial agonists were prepared as follows:
All materials were kept on ice throughout the procedure. Firstly, the media was aspirated from a confluent monolayer of cells, followed by rinse with 10 ml cold PBS, followed by aspiration. Thereafter, 5 ml of membrane Scrape Buffer was added to scrape cells; this was followed by transfer of cellular extract into 50 ml centrifuge tubes (centrifuged at 20,000 rpm for 17 minutes at 4° C.). Thereafter, the supernatant was aspirated and the pellet was resuspended in 30 ml Membrane Wash Buffer followed by centrifuge at 20,000 rpm for 17 minutes at 4° C. The supernatant was then aspirated and the pellet resuspended in Binding Buffer. This was then homogenized using a Brinkman polytron™ homogenizer (15-20 second bursts until the all material was in suspension). This is referred to herein as “Membrane Protein”.
Candidate compounds (Tripos, Inc., St. Louis, Mo.) were received in 96-well plates (these can be frozen at −80° C.). Membrane Protein (or membranes with expression vector excluding the GPR6:Gsα-Fusion Protein, as control), were homogenized briefly until in suspension. Protein concentration was then determined using the Bradford Protein Assay set forth above. […] Thereafter, 100 ul GDP Buffer was added to each well of a Wallac Scintistrip™ (Wallac). A 5 ul pin-tool was then used to transfer 5 ul of a candidate compound into such well (i.e., 5 ul in total assay volume of 200 ul is a 1:40 ratio such that the final screening concentration of the candidate compound is 10 uM). Again, to avoid contamination, after each transfer step the pin tool was rinsed in three reservoirs comprising water (1×), ethanol (1×) and water (2×)—excess liquid should be shaken from the tool after each rinse and dried with paper towels and kimwipes™. Thereafter, 50 ul of Membrane Protein was added to each well (a control well comprising membranes without the GPCR Fusion Protein is also utilized), and pre-incubated for 5-10 minutes at room temperature (the plates were covered with foil in that the candidate compounds obtained from Tripos are light sensitive). Thereafter, 50 ul of [^35S]GTPγS (0.6 nM) in Binding Buffer was added to each well, followed by incubation on a shaker for 60 minutes at room temperature (again, in this example, plates were covered with foil). The assay was then stopped by spinning of the plates at 4000 RPM for 15 minutes at 22° C. The plates were then aspirated with an 8 channel manifold and sealed with plastic plate covers. The plates were then read on a Wallac 1450 using setting “Prot. #37” (as per manufacturer instructions).
The initial or “primary” screen designed to directly identify, e.g., human GPR6 receptor inverse agonists, consisted of the membrane-based GTPγS binding assay of Example 4A utilizing membranes prepared from 293 stable cells. Candidate compounds directly identified as inhibiting receptor-mediated increases in GTPγS as set forth below were considered active “leads”.
It is preferred that following such direct identification, IC50 (inverse agonist) or EC50 (agonist) values be determined; those having ordinary skill in the art are credited with utilizing IC50 and EC50 assay protocols of choice. FIG. 4 provides a representative IC50 curve for compound ARE112 using the assay protocol of Example 4A.

[1] = Food/water intake and body weight in 24-hour food deprived rats, oral gavage (PO); type: in vivo, rat
Method: Based upon the in vivo data developed, oral bioavailability of compound ARE112 was determined. The compound was administered by oral gavage at doses ranging from 6.75 to 54 mg/kg. The data presented in FIGS. 9A and 9B support the conclusion that oral administration of ARE112 also decreases food intake in both food-deprived and non-food deprived rats. […] In FIG. 9A, rats were deprived 24 hours prior to oral administration of the compound. In this assay, the vehicle-treated rats at 2.5 hours consumed […] of food while injected rats; particularly rats administered with 27 and 54 mg/kg of ARE 112, ate about 6 and 4 grams, respectively. […] (See, FIG. 9A).
Several other GPR6 inverse agonists were also assessed under 24-hour food deprived conditions, with PO administration. The analogs listed below were tested at 200 μmol/kg, which is equivalent to 54 mg/kg. In addition, ARE114 was also assessed at […]. Data are summarized below in Table C:
In a second assay, tested under the same conditions, several other analogs were assessed at 100 μmol/kg.
In FIG. 10, rats were deprived 24 hours prior to oral administration of the compound. In this assay, analogs ARE130, ARE135, ARE136, and ARE140, were administered at a dose of 100 μmol/kg. Three analogs, particularly, ARE130, ARE136 and ARE140 evidenced a slow intake of food (e.g., about 1 to 1.5 grams every two hours) over an eight hour period post-administration; while the vehicle rat consumed about 2 to 2.5 grams food every two hours. Similar to the vehicle rat, analog ARE135, an opened ring structure, evidenced that over an eight hour period post-administration the rats increasingly consumed about 2.5 grams every two hours. (See, FIG. 10A). Furthermore, the body weight of the vehicle rat and administered rats with analog ARE135 gained about 19.5 grams. On the other hand, the closed ring structures evidenced a decrease in body weight gain as follows: ARE112-6 grams, ARE130-9 grams, ARE136-11 grams and ARE140-14 grams. See, FIG. 10C.

GPR6 = target: T2, GPR6 (Homo sapiens, UniProt P46095); test: membrane-based cyclic AMP confirmation assay (Example 4C); type: biochemical; details: mean +/- standard deviation (number of assays in brackets); read-out: IC50 Values Cyclic AMP Assay Example 4C
T2 construct: expressed in transfected cells; 293 cells are used elsewhere
Excerpt: Using an independent assay approach to provide confirmation of a directly identified candidate compound as set forth above, it is preferred that a confirmation assay then be utilized. In this case, the preferred confirmation assay is membrane-based cyclic AMP (cAMP) assay.
A modified Flash Plate™ Adenylyl Cyclase kit (New England Nuclear; Cat. No. SMP004A) was utilized for confirmation of candidate compounds directly identified as inverse agonists and agonists to endogenous, constitutively activated orphan GPCRs in accordance with the following protocol.
Transfected stable cells were harvested approximately three days after transfection. Membranes were prepared by homogenization of suspended cells in buffer containing 20 mM HEPES, pH 7.4 and 10 mM MgCl2. Homogenization was performed on ice using a Brinkman Polytron™ for approximately 10 seconds. The resulting homogenate was centrifuged at 20,000 rpm for 20 minutes at 4° C. The resulting pellet was then resuspended in buffer containing 20 mM HEPES, pH 7.4 and 0.1 mM EDTA, homogenized for 10 seconds, followed by centrifugation at 20,000 rpm for 20 minutes at 4° C. The resulting pellet can be stored at −80° C. until utilized. On the day of direct identification screening, the membrane pellet is slowly thawed at room temperature, resuspended in buffer containing 20 mM HEPES, pH 7.4, 100 mM NaCl and 10 mM MgCL2, to yield a final protein concentration of 0.60 mg/ml (the resuspended membranes are placed on ice until use).
Candidate compounds identified as per above (if frozen, thawed at room temperature) were added to plate wells (3 μl/well; 12 μM final assay concentration), together with 50 μl Membrane Protein (30 μg/well) and 50 μl of Assay Buffer. This admixture was then incubated for 30 minutes at room temperature, with gentle shaking.
Following the incubation, 100 μl of Detection Buffer was added to each well, followed by incubation for 2-20 hours. Plates were subsequently aspirated and then counted in a Wallac MicroBeta™ plate reader using “Prot. #31” (as per manufacturer instructions).

[2] = mean +/- standard deviation (number of assays in brackets), read-out: IC50 Values GTP Assay Example 4A
[3] = 100 μmol/kg PO, second assay, Table D, vehicle 19.25
[4] = 200 μmol/kg PO, Table C, vehicle 14.5
[5] = 200 μmol/kg PO, Table C, vehicle 20.3
[6] = 200 μmol/kg PO, Table C, vehicle 22.9

T1 sequence (P46095 with tags, fused parts or gaps): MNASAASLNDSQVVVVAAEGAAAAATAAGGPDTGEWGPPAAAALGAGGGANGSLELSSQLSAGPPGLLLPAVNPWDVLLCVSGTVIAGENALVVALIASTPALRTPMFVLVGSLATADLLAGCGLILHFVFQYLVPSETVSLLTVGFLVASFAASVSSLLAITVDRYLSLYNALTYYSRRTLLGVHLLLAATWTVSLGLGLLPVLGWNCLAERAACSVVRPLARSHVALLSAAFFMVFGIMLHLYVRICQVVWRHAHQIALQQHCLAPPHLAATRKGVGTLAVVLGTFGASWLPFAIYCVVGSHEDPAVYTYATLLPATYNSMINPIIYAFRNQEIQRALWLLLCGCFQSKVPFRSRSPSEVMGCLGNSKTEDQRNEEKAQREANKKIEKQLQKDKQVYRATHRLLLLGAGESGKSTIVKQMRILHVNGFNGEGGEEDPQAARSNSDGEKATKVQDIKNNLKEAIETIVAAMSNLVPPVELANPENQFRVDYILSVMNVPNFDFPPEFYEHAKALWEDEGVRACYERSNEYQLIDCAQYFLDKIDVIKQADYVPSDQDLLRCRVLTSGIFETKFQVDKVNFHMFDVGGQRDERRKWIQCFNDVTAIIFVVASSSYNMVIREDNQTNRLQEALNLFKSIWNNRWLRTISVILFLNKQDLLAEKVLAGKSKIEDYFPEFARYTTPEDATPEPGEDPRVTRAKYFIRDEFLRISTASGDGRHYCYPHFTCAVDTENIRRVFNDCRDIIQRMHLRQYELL
T2 sequence (P46095 whole entry): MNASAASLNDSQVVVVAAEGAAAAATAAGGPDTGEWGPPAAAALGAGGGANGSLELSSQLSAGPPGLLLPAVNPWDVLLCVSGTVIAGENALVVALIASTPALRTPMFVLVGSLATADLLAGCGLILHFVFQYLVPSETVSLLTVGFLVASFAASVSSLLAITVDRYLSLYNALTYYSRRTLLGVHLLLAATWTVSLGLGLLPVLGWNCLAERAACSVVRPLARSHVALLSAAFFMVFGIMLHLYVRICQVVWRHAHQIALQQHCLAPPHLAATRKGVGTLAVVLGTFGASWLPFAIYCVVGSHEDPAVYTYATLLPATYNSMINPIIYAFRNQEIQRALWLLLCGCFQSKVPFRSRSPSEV

Compound | IC50 (GPR6:Gsα-Fusion Protein; mean +/- SD (number of assays), read-out: IC50 Values (Table E, GTP Assay of Example 4A)) [nM] | IC50 (GPR6:Gsα-Fusion Protein; [2]) [nM] | Cumulative Food Intake (g) (8 hr post administration) ([1]; 100 μmol/kg PO, second assay, Table D, vehicle 14.0) | Body Weight Gain (g) (6 hr post administration) [1, 3] | Cumulative Water Intake (g) (6 hr post administration) [1, 3] | water drunk less than the vehicle animal (FIG. 10B) ([1]; 100 μmol/kg oral) | body weight gain (FIG. 10C) ([1]; 100 μmol/kg oral, vehicle about 19.5 grams) [grams] | IC50 (GPR6) [nM] | Cumulative Food Intake (g) (8 hr post administration) [1, 4] | Body Weight Gain (g) (6 hr post administration) [1, 5] | Cumulative Water Intake (g) (6 hr post administration) [1, 6] | Cumulative Food Intake (g) (8 hr post administration) ([1]; 100 μmol/kg PO, Table C, vehicle 14.5) | Body Weight Gain (g) (6 hr post administration) ([1]; 100 μmol/kg PO, Table C, vehicle 20.3) | Cumulative Water Intake (g) (6 hr post administration) ([1]; 100 μmol/kg PO, Table C, vehicle 22.9)
O=C(N=C1SSC2=NCCN21)c1cccc(F)c1 [ARE130, N-(5,6-dihydro-3H-imidazo[2,1-c]-1,2,4-dithiazol-3-ylidene)-3-fluorobenzamide] | 220 | 220 | 9.1 | 9.5 | 9.5 | about 10 grams | 9 | 240 |  |  |  |  |  | 
O=C(N=C1SSC2=NCCN21)c1ccc(F)cc1 [ARE128, N-(5,6-dihydro-3H-imidazo[2,1-c]-1,2,4-dithiazol-3-ylidene)-4-fluorobenzamide] |  | 370 |  |  |  |  |  | 200 | 7.93 | 4.03 | 8.5 |  |  | 
O=C(N=C1SSC2=NCCN21)c1ccc(Cl)cc1 [ARE120, N-(5,6-dihydro-3H-imidazo[2,1-c]-1,2,4-dithiazol-3-ylidene)-4-chlorobenzamide] |  | 640 |  |  |  |  |  | 270 | 9.88 | 11.4 | 18.5 |  |  | 
O=C(N=C1SSC2=NCCN21)c1ccccc1 [ARE114, N-(5,6-dihydro-3H-imidazo[2,1-c]-1,2,4-dithiazol-3-ylidene)-benzamide] |  | 440 |  |  |  |  |  | 170 | 8.68 | 6.18 | 10.6 | 10.8 | 13.6 | 15.3
